# Test results published in patent US20230143612A1 (Arbutus Biopharma Corporation, priority 2020, published 2023).
# Biological target: PD-L1 His protein / PD-1 Fc protein (Homo sapiens, UniProt Q9NZQ7)
# Experiment: HTRF Assay (PD-1/PD-L1 interaction)
# Assay type: binding
# Conditions: PD-L1 His 6 nM, PD-1 Fc 6 nM
# Summary of the method: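 HTRF: PD-L1 His (6 nM final), compound (3-fold dilutions, 20 μM to 0.001 μM final) and PD-1 Fc (6 nM final) preincubated 15 min at room temperature. Anti-human IgG-XL665 and anti-6HIS Tb cryptate (mixed at 6.7 nM and 0.35 nM) then added for 1 h at room temperature before reading.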
# Sequence of PD-L1 His protein / PD-1 Fc protein (Q9NZQ7 19-238 limits assumed): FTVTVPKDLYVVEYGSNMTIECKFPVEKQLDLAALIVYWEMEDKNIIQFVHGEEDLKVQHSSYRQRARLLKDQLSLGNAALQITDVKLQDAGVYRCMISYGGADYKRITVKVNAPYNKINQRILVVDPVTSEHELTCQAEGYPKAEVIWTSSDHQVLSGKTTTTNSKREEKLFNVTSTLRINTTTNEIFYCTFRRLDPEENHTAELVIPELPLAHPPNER
row,Compound,IC50 [nM]
1,"CNC(=O)[C@H]1CCN(Cc2cnc3cc(-c4cccc(-c5cccc(-c6ccc(CNC[C@@H]7CCC(=O)N7)c(OC)n6)c5Cl)c4Cl)ccn3c2=O)C1 [Example 257, (S)-1-((8-(2,2′-Dichloro-3′-(6-methoxy-5-(((((S)-5-oxopyrrolidin-2-yl)methyl)amino)methyl)pyridin-2-yl)-[1,1′-biphenyl]-3-yl)-4-oxo-4H-pyrido[1,2-a]pyrimidin-3-yl)methyl)-N-methylpyrrolidine-3-carboxamide]",1.9
2,"COc1nc(-c2cccc(-c3cc(F)cc(-c4ccn5c(=O)c(CNC[C@@H]6CCC(=O)N6)cnc5c4)c3Cl)c2Cl)ccc1CNC[C@@H]1CCC(=O)N1 [Example 140, 8-(2,2′-Dichloro-5-fluoro-3′-(6-methoxy-5-(((((S)-5-oxopyrrolidin-2-yl)methyl)amino)methyl)pyridin-2-yl)-[1,1′-biphenyl]-3-yl)-3-(((((S)-5-oxopyrrolidin-2-yl)methyl)amino)methyl)-4H-pyrido[1,2-a]pyrimidin-4-one]",2
3,"COc1nc(-c2cccc(-c3cccc(-c4ccn5c(=O)c(CNC[C@@H]6CCC(=O)N6)cnc5c4)c3Cl)c2Cl)ccc1CN1CC[C@H](O)C1 [Example 175, 8-(2,2′-Dichloro-3′-(5-(((S)-3-hydroxypyrrolidin-1-yl)methyl)-6-methoxypyridin-2-yl)-[1,1′-biphenyl]-3-yl)-3-(((((S)-5-oxopyrrolidin-2-yl)methyl)amino)methyl)-4H-pyrido[1,2-a]pyrimidin-4-one]",0.1
4,"COc1nc(-c2cccc(-c3cccc(-c4ccn5c(=O)c(CNC[C@@H]6CCC(=O)N6)cnc5c4)c3Cl)c2Cl)cnc1CNC[C@@H]1CCC(=O)N1 [Example 47, 8-(2,2′-Dichloro-3′-(6-methoxy-5-(((((S)-5-oxopyrrolidin-2-yl)methyl)amino)methyl)pyrazin-2-yl)-[1,1′-biphenyl]-3-yl)-3-(((((S)-5-oxopyrrolidin-2-yl)methyl)amino)methyl)-4H-pyrido[1,2-a]pyrimidin-4-one]",1.4
5,"COc1nc(-c2cccc(-c3cccc(-c4ccn5c(=O)c(CNC[C@@H]6CCC(=O)N6)cnc5c4)c3Cl)c2Cl)ccc1CNCCO [Example 102, (S)-8-(2,2′-Dichloro-3′-(5-(((2-hydroxyethyl)amino)methyl)-6-methoxypyridin-2-yl)-[1,1′-biphenyl]-3-yl)-3-((((5-oxopyrrolidin-2-yl)methyl)amino)methyl)-4H-pyrido[1,2-a]pyrimidin-4-one]",7.1
6,"O=C1CC[C@@H](CNCc2cnc3cc(-c4cccc(-c5cccc(-c6ccn7c(=O)c(CNC[C@@H]8CCC(=O)N8)cnc7c6)c5Cl)c4Cl)ccn3c2=O)N1 [Example 48, (S)-8,8′-(2,2′-Dichloro-[1,1′-biphenyl]-3,3′-diyl)bis(3-(((((S)-5-oxopyrrolidin-2-yl)methyl)amino)methyl)-4H-pyrido[1,2-a]pyrimidin-4-one)]",7
7,"COc1nc(-c2cccc(-c3cccc(-c4ccn5c(=O)c(CN6CC(C(=O)O)C6)cnc5c4)c3Cl)c2Cl)ccc1CN1CC(CO)C1 [Example 84, 1-((8-(2,2′-Dichloro-3′-(5-((3-(hydroxymethyl)azetidin-1-yl)methyl)-6-methoxypyridin-2-yl)-[1,1′-biphenyl]-3-yl)-4-oxo-4H-pyrido[1,2-a]pyrimidin-3-yl)methyl)azetidine-3-carboxylic acid]",0.3
8,"COc1nc(-c2cccc(-c3cccc(-c4ccc5c(OC)c(CNC[C@@H]6CCC(=O)N6)cc(Cl)c5n4)c3Cl)c2Cl)ccc1CNC[C@@H]1CCC(=O)N1 [Example 194, (S)-5-((((8-Chloro-2-(2,2′-dichloro-3′-(6-methoxy-5-(((((S)-5-oxopyrrolidin-2-yl)methyl)amino)methyl)pyridin-2-yl)-[1,1′-biphenyl]-3-yl)-5-methoxyquinolin-6-yl)methyl)amino)methyl)pyrrolidin-2-one]",26
